{"source": "patent US20230330093A1", "about": "“APPLICATION OF NITROGEN-CONTAINING SATURATED HETEROCYCLIC COMPOUND” (SHANGHAI PHARMACEUTICALS HOLDING CO., LTD., priority 2020, published 2023)", "format_in_all_cases": "in vivo, Macaca mulatta (Rhesus Macaque)", "key": {"[1]": {"system": "rhesus monkeys with spontaneous chronic kidney disease", "assay": "Effect on BUN, 8-week administration", "settings": "Valsartan group (n = 3)", "procedure": "(§1) In the trial, animals were brought in three stages. […] Glomerular filtration rate […]: creatinine (Cr-P), urea nitrogen (BUN) and cystatin (CysC) were detected, and the eGFR value was obtained by calculation. It was performed once before the administration and once every two weeks after the administration. […] ELISA kit was used for NT-proBNP test. [table]"}, "[2]": {"system": "rhesus monkeys with spontaneous chronic kidney disease", "assay": "Effect on NT-proBNP (ELISA), 8-week administration", "settings": "Valsartan group (n = 3)", "description": "In the trial, animals were brought in three stages. […] ELISA kit was used for NT-proBNP test. [table]"}, "[3]": {"system": "rhesus monkeys with spontaneous chronic kidney disease", "assay": "Effect on plasma creatinine Cr-P, 8-week administration", "settings": "Valsartan group (n = 3)", "procedure": "as §1"}, "[4]": {"system": "rhesus monkeys with spontaneous chronic kidney disease", "assay": "Effect on glomerular filtration rate eGFRcreat-cys, 8-week administration", "settings": "for eGFRcreat-cys / eGFRcreat-cys Change value (8 weeks): Valsartan group (n = 3); for eGFRcreat-cys Change value (8 weeks): 8 weeks − Baseline", "procedure": "CKD-EPI rating […]-G3b, glomerular filtration rate eGFR: 30 59 ml/min/1.73 m^2; or moderate to severe increase in proteinuria (A2-A3): urine albumin/creatinine ratio (UACR)>15 mg/g-350 mg/g (4-6 hour urine collection), vs. age-matched control group 3±2 mg/g. In the trial, animals were brought in three stages. […] Glomerular filtration rate […]: creatinine (Cr-P), urea nitrogen (BUN) and cystatin (CysC) were detected, and the eGFR value was obtained by calculation. It was performed once before the administration and once every two weeks after the administration. […] ELISA kit was used for NT-proBNP test. [table] Selected […] in each group: 30 59 ml/min/1.73 m^2. The changes in the glomerular filtration rate of W8 and baseline were analyzed."}, "[5]": {"system": "rhesus monkeys with spontaneous chronic kidney disease", "assay": "Effect on blood pressure (SBP, DBP, MBP, HR) after anesthesia, 8-week administration", "settings": "for DBP / SBP: Valsartan group (n = 3)", "description": "In the trial, animals were brought in three stages.\nRoute of administration: Oral administration.\nAfter anesthesia, the animal was placed in a supine position. The left upper arm was shaved clean, and a suitable size cuff was tied according to the standard. The blood oxygen probe was clamped on the animal's finger or toe (except for the left hand), and the red light-sensitive surface was on the side of the finger pad. The blood pressure of the animal was continuously measured for 3 times in the automatic mode with an interval of 1 min. If the difference of DBP, SBP and MBP of blood pressure measured more than three times was not significant (the difference between the highest value and the lowest value was less than 15 mmHg), the measurement was completed.\nTesting equipment: GE B40i electrophysiological monitor.\nSee Table 16 for the effects of administration of each administration group on blood pressure. The blood pressure test of primates required anesthesia, so it was necessary to control the variability of heart rate at various time points to make statistics."}, "[6]": {"settings": "Baseline, single animals and Mean ± SD"}, "[7]": {"settings": "Baseline, single animals and Mean ± SD, mean"}, "[8]": {"settings": "Valsartan group (n=3), after W8 administration, p<0.01 vs placebo"}}, "note": "Several values for one entry are separate records, joined by “and”; a condition that tells them apart may be missing. Equal entries are not always repeated.", "data": [{"smiles": "CCCCC(=O)N(Cc1ccc(-c2ccccc2-c2nnn[nH]2)cc1)[C@H](C(=O)O)C(C)C", "note": "[Valsartan, reference compound]", "values": [{"measurement": "BUN", "setting": "[1]; 4 weeks", "value": "22.2 mg/dL and 29.1 mg/dL and 33.4 mg/dL"}, {"measurement": "BUN", "setting": "[1]; 4 weeks, mean", "value": "28.2 ± 5.7", "unit": "mg/dL"}, {"measurement": "BUN", "setting": "[1]; 8 weeks", "value": "19.5 mg/dL and 33.4 mg/dL and 26.0 mg/dL"}, {"measurement": "BUN", "setting": "[1]; 8 weeks, mean", "value": "26.3 ± 7.0", "unit": "mg/dL"}, {"measurement": "BUN", "setting": "[1]; Baseline2, single animals and Mean ± SD", "value": "19.0 mg/dL and 25.4 mg/dL and 31.2 mg/dL"}, {"measurement": "BUN", "setting": "[1]; Baseline2, single animals and Mean ± SD, mean", "value": "25.2 ± 6.1", "unit": "mg/dL"}, {"measurement": "NT-proBNP", "setting": "[2]; 4 weeks", "value": "179 pg/mL and 260 pg/mL and 285 pg/mL"}, {"measurement": "NT-proBNP", "setting": "[2]; 4 weeks, mean", "value": "241 ± 56", "unit": "pg/mL"}, {"measurement": "NT-proBNP", "setting": "[2]; 8 weeks", "value": "217 pg/mL and 288 pg/mL and 291 pg/mL"}, {"measurement": "NT-proBNP", "setting": "[2]; 8 weeks, mean", "value": "266 ± 42", "unit": "pg/mL"}, {"measurement": "NT-proBNP", "setting": "[2]; [6]", "value": "211 pg/mL and 500 pg/mL and 394 pg/mL"}, {"measurement": "NT-proBNP", "setting": "[2]; [7]", "value": "368 ± 146", "unit": "pg/mL"}, {"measurement": "Cr-P", "setting": "[3]; 2 weeks", "value": "1.12 mg/dL and 1.22 mg/dL"}, {"measurement": "Cr-P", "setting": "[3]; 2 weeks, mean", "value": "1.15 ± 0.06", "unit": "mg/dL"}, {"measurement": "Cr-P", "setting": "[3]; 4 weeks", "value": "1.12 mg/dL and 1.08 mg/dL and 1.26 mg/dL"}, {"measurement": "Cr-P", "setting": "[3]; 4 weeks, mean", "value": "1.15 ± 0.09", "unit": "mg/dL"}, {"measurement": "Cr-P", "setting": "[3]; 6 weeks", "value": "1.11 mg/dL and 1.26 mg/dL"}, {"measurement": "Cr-P", "setting": "[3]; 6 weeks, mean", "value": "1.16 ± 0.09", "unit": "mg/dL"}, {"measurement": "Cr-P", "setting": "[3]; 8 weeks", "value": "1.09 mg/dL and 1.03 mg/dL and 1.26 mg/dL"}, {"measurement": "Cr-P", "setting": "[3]; 8 weeks, mean", "value": "1.13 ± 0.12", "unit": "mg/dL"}, {"measurement": "Cr-P", "setting": "[3]; [6]", "value": "1.28 mg/dL and 1.31 mg/dL and 1.50 mg/dL"}, {"measurement": "Cr-P", "setting": "[3]; [7]", "value": "1.36 ± 0.12", "unit": "mg/dL"}, {"measurement": "eGFRcreat-cy, Change value", "setting": "[4]; Valsartan group 2.67 mg/kg/time oral (qd wk 1-2, bid wk 3-8), Baseline, per animal + Mean ± SD", "value": 0, "unit": "ml/min/1.73 m^2"}, {"measurement": "eGFRcreat-cy, Change value", "setting": "[4]; Valsartan group 2.67 mg/kg/time oral (qd wk 1-2, bid wk 3-8), Baseline, per animal + Mean ± SD, mean", "value": "0 ± 0", "unit": "ml/min/1.73 m^2"}, {"measurement": "eGFRcreat-cy, Change value", "setting": "[4]; Valsartan group 2.67 mg/kg/time oral, 2 weeks vs baseline, per animal + Mean ± SD", "value": "4 ml/min/1.73 m^2 (2×) and 6 ml/min/1.73 m^2"}, {"measurement": "eGFRcreat-cy, Change value", "setting": "[4]; Valsartan group 2.67 mg/kg/time oral, 2 weeks vs baseline, per animal + Mean ± SD, mean", "value": "5 ± 1", "unit": "ml/min/1.73 m^2"}, {"measurement": "eGFRcreat-cy, Change value", "setting": "[4]; Valsartan group 2.67 mg/kg/time oral, 4 weeks vs baseline, per animal + Mean ± SD", "value": "1 ml/min/1.73 m^2 and 7 ml/min/1.73 m^2 and 6 ml/min/1.73 m^2"}, {"measurement": "eGFRcreat-cy, Change value", "setting": "[4]; Valsartan group 2.67 mg/kg/time oral, 4 weeks vs baseline, per animal + Mean ± SD, mean", "value": "5 ± 3", "unit": "ml/min/1.73 m^2"}, {"measurement": "eGFRcreat-cy, Change value", "setting": "[4]; Valsartan group 2.67 mg/kg/time oral, 6 weeks vs baseline, per animal + Mean ± SD", "value": "1 ml/min/1.73 m^2 and 5 ml/min/1.73 m^2 and 7 ml/min/1.73 m^2"}, {"measurement": "eGFRcreat-cy, Change value", "setting": "[4]; Valsartan group 2.67 mg/kg/time oral, 6 weeks vs baseline, per animal + Mean ± SD, mean", "value": "4 ± 3", "unit": "ml/min/1.73 m^2"}, {"measurement": "eGFRcreat-cy, Change value", "setting": "[4]; Valsartan group 2.67 mg/kg/time oral, 8 weeks vs baseline, per animal + Mean ± SD (p<0.01 vs placebo)", "value": "6±2 ml/min/1.73 m^2 and 5 ml/min/1.73 m^2 and 8 ml/min/1.73 m^2"}, {"measurement": "eGFRcreat-cys", "setting": "[4]; 2 weeks", "value": "58 ml/min/1.73 m^2 and 54 ml/min/1.73 m^2 and 46 ml/min/1.73 m^2"}, {"measurement": "eGFRcreat-cys", "setting": "[4]; 2 weeks, group mean", "value": "53 ± 6", "unit": "ml/min/1.73 m^2"}, {"measurement": "eGFRcreat-cys", "setting": "[4]; 4 weeks", "value": "55 ml/min/1.73 m^2 and 57 ml/min/1.73 m^2 and 46 ml/min/1.73 m^2"}, {"measurement": "eGFRcreat-cys", "setting": "[4]; 4 weeks, group mean", "value": "53 ± 6", "unit": "ml/min/1.73 m^2"}, {"measurement": "eGFRcreat-cys", "setting": "[4]; 6 weeks", "value": "55 ml/min/1.73 m^2 and 47 ml/min/1.73 m^2"}, {"measurement": "eGFRcreat-cys", "setting": "[4]; 6 weeks, group mean", "value": "53 ± 5", "unit": "ml/min/1.73 m^2"}, {"measurement": "eGFRcreat-cys", "setting": "[4]; 8 weeks", "value": "60 ml/min/1.73 m^2 and 59 ml/min/1.73 m^2 and 46 ml/min/1.73 m^2"}, {"measurement": "eGFRcreat-cys Change value (8 weeks)", "setting": "[4]", "value": "5 ml/min/1.73 m^2 and 8 ml/min/1.73 m^2"}, {"measurement": "eGFRcreat-cys Change value (8 weeks)", "setting": "[4]; group mean", "value": "6 ± 2", "unit": "ml/min/1.73 m^2"}, {"measurement": "eGFRcreat-cys", "setting": "[4]; 8 weeks, group mean", "value": "55 ± 8", "unit": "ml/min/1.73 m^2"}, {"measurement": "eGFRcreat-cys", "setting": "[4]; [6]", "value": "55 ml/min/1.73 m^2 and 50 ml/min/1.73 m^2 and 40 ml/min/1.73 m^2"}, {"measurement": "eGFRcreat-cys", "setting": "[4]; Baseline, single animals and Mean ± SD, group mean", "value": "48 ± 7", "unit": "ml/min/1.73 m^2"}, {"measurement": "DBP", "setting": "[5]; 4 weeks", "value": "62 mmHg and 53 mmHg"}, {"measurement": "SBP", "setting": "[5]; 4 weeks", "value": "130 mmHg and 106 mmHg and 138 mmHg"}, {"measurement": "DBP", "setting": "[5]; 4 weeks, mean", "value": "59 ± 5", "unit": "mmHg"}, {"measurement": "SBP", "setting": "[5]; 4 weeks, mean", "value": "125 ± 17", "unit": "mmHg"}, {"measurement": "DBP", "setting": "[5]; 8 weeks", "value": "61 mmHg and 53 mmHg and 75 mmHg"}, {"measurement": "SBP", "setting": "[5]; 8 weeks", "value": "121 mmHg and 107 mmHg and 133 mmHg"}, {"measurement": "DBP", "setting": "[5]; 8 weeks, mean", "value": "63 ± 11", "unit": "mmHg"}, {"measurement": "SBP", "setting": "[5]; 8 weeks, mean", "value": "120 ± 13", "unit": "mmHg"}, {"measurement": "DBP", "setting": "[5]; Baseline", "value": "67 mmHg and 60 mmHg and 82 mmHg"}, {"measurement": "DBP", "setting": "[5]; Baseline, mean", "value": "70 ± 11", "unit": "mmHg"}, {"measurement": "SBP", "setting": "[5]; [6]", "value": "131 mmHg and 125 mmHg and 148 mmHg"}, {"measurement": "SBP", "setting": "[5]; [7]", "value": "135 ± 12", "unit": "mmHg"}, {"measurement": "DBP decreased by on average, compared with the baseline", "setting": "[5]; [8]", "value": "7±0", "unit": "mmHg"}, {"measurement": "SBP decreased by on average, compared with the baseline", "setting": "[5]; [8]", "value": "14±4", "unit": "mmHg"}]}]}
